By IC50 is commonly meant the point on the concentration scale where inhibition reaches its midpoint.

In patent US9062048B2, “Cyclohexyl-azetidinyl antagonists of CCR2” (Janssen Pharmaceutica NV, priority 2010, dated 2015) one finds IC50 data, which are given here for 24 compounds.

In this assay the target is CCR2 (Homo sapiens (Human), UniProt P41597). Briefly: MCP-1 Receptor Binding Assay in THP-1 Cells.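 Note: THP-1 is a human monocytic cell line, and nonspecific binding was defined with 1 µM unlabeled MCP-1.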 The following applies: 0.5 nM 125I labeled MCP-1, 2 hours at 30° C., read-out: Inhibition of MCP-1 Binding IC50 MCP1B.
CCR2, sequence (P41597 whole entry): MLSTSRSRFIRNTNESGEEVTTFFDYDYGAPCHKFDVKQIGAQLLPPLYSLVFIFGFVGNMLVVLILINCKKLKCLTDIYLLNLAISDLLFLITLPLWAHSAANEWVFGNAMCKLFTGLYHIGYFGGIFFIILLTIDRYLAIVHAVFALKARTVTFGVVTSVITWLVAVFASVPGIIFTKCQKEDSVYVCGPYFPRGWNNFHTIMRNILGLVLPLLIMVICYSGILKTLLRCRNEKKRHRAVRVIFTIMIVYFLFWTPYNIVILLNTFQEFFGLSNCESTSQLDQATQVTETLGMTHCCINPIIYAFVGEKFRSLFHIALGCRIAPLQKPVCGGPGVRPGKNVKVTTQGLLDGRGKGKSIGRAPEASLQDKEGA
As to `O=C(CNc1ncnc2ccc(C(F)(F)F)cc12)NC1CN([C@H]2CC[C@@H](N3CCS(=O)(=O)CC3)CC2)C1` [Example 134, N-(1-((1s,4s)-4-(1,1-dioxidothiomorpholino)cyclohexyl)azetidin-3-yl)-2-((6-(trifluoromethyl)quinazolin-4-yl)amino)acetamide], the half-inhibitory concentration (IC50) was found to be 72 nM. For the compound `CCC(NC(=O)C(F)(F)F)[C@H]1CC[C@@H](N2CC(NC(=O)CNc3ncnc4ccc(C(F)(F)F)cc34)C2)CC1` (stereo partly drawn) [Example 135, 2,2,2-trifluoro-N—((S)-1-((1s,4R)-4-(3-(2-((6-(trifluoromethyl)quinazolin-4-yl)amino)acetamido)azetidin-1-yl)cyclohexyl)propyl)acetamide], the IC50 worked out at 2980 nM.

Regarding `CCC(N)[C@H]1CC[C@@H](N2CC(NC(=O)CNc3ncnc4ccc(C(F)(F)F)cc34)C2)CC1` (stereo partly drawn) [Example 136, N-(1-((1R,4s)-4-((S)-1-aminopropyl)cyclohexyl)azetidin-3-yl)-2-((6-(trifluoromethyl)quinazolin-4-yl)amino)acetamide], the IC50 was determined as 40 nM. On to `CCC([C@H]1CC[C@@H](N2CC(NC(=O)CNc3ncnc4ccc(C(F)(F)F)cc34)C2)CC1)N(C)C` (stereo partly drawn) [Example 137, N-(1-((1S,4s)-4-((R)-1-(dimethylamino)propyl)cyclohexyl)azetidin-3-yl)-2-(6-(trifluoromethyl)quinazolin-4-ylamino)acetamide], for which the IC50 was 5040 nM. For the compound `CCC(NC(C)=O)[C@H]1CC[C@@H](N2CC(NC(=O)CNc3ncnc4ccc(C(F)(F)F)cc34)C2)CC1` (stereo partly drawn) [Example 138, N-(1-((1R,4s)-4-((S)-1-acetamidopropyl)cyclohexyl)azetidin-3-yl)-2-((6-(trifluoromethyl)quinazolin-4-yl)amino)acetamide], the IC50 turned out to be 1900 nM. For the compound `CCC(NS(C)(=O)=O)[C@H]1CC[C@@H](N2CC(NC(=O)CNc3ncnc4ccc(C(F)(F)F)cc34)C2)CC1` (stereo partly drawn) [Example 139, N-(1-((1R,4s)-4-((S)-1-(methylsulfonamido)propyl)cyclohexyl)azetidin-3-yl)-2-((6-(trifluoromethyl)quinazolin-4-yl)amino)acetamide], the half-maximal inhibitory concentration (IC50) came out at 1450 nM.

As for `CCC(NS(=O)(=O)C(F)(F)F)[C@H]1CC[C@@H](N2CC(NC(=O)CNc3ncnc4ccc(C(F)(F)F)cc34)C2)CC1` (stereo partly drawn) [Example 140, 2-((6-(trifluoromethyl)quinazolin-4-yl)amino)-N-(1-((1R,4s)-4-((S)-1-(trifluoromethylsulfonamido)propyl)cyclohexyl)azetidin-3-yl)acetamide], the IC50 was 3000 nM. With `CCC(NC(N)=O)[C@H]1CC[C@@H](N2CC(NC(=O)CNc3ncnc4ccc(C(F)(F)F)cc34)C2)CC1` (stereo partly drawn) [Example 141, 2((6-(trifluoromethyl)quinazolin-4-yl)amino)-N-(1-((1R,4s)-4-((S)-1-ureidopropyl)cyclohexyl)azetidin-3-yl)acetamide], the IC50 was found to be 250 nM. `CCC(NC(=O)N(C)C)[C@H]1CC[C@@H](N2CC(NC(=O)CNc3ncnc4ccc(C(F)(F)F)cc34)C2)CC1` (stereo partly drawn) [Example 143, N-(1-((1R,4s)-4-((S)-1-(3,3-dimethylureido)propyl)cyclohexyl)azetidin-3-yl)-2-((6-(trifluoromethyl)quinazolin-4-yl)amino)acetamide]: the IC50 came to 13800 nM. Consider `CCC(NC(=O)OC)[C@H]1CC[C@@H](N2CC(NC(=O)CNc3ncnc4ccc(C(F)(F)F)cc34)C2)CC1` (stereo partly drawn) [Example 144, methyl ((S)-1-((1s,4R)-4-(3-(2-((6-(trifluoromethyl)quinazolin-4-yl)amino)acetamido)azetidin-1-yl)cyclohexyl)propyl)carbamate], for which the IC50 is 640 nM. In the case of `O=C(CNc1cnnc2ccc(C(F)(F)F)cc12)NC1CN([C@H]2CC[C@@](O)(c3cncs3)CC2)C1` [Example 147, N-(1-((1r,4r)-4-hydroxy-4-(thiazol-5-yl)cyclohexyl)azetidin-3-yl)-2-((6-(trifluoromethyl)cinnolin-4-yl)amino)acetamide] it was 9.2 nM; in that of `CC[C@H](O)[C@H]1CC[C@H](N2CC(NC(=O)CNc3nccc4ncc(C(F)(F)F)cc34)C2)CC1` [Example 151], over 25000 nM; in that of `CCC(O)[C@H]1CC[C@@H](N2CC(NC(=O)CNc3cnnc4ccc(C(F)(F)F)cc34)C2)CC1` (stereo partly drawn) [Example 152, N-(1-(4-(1-hydroxypropyl)cyclohexyl)azetidin-3-yl)-2-(6-(trifluoromethyl)cinnolin-4-ylamino)acetamide], 530 nM. As to `CC[C@@H](O)[C@H]1CC[C@H](N2CC(NC(=O)CNc3nncc4ccc(C(F)(F)F)cc34)C2)CC1` [Example 154, N-(1-((1R,4r)-4-((R)-1-hydroxypropyl)cyclohexyl)azetidin-3-yl)-2-((7-(trifluoromethyl)phthalazin-1-yl)amino)acetamide], the IC50 came out at 6080 nM.

On to `CC(C)[C@@H](O)[C@H]1CC[C@H](N2CC(NC(=O)CNc3nccc4ncc(C(F)(F)F)cc34)C2)CC1` [Example 156, N-(1-((1R,4r)-4-((R)-1-hydroxy-2-methylpropyl)cyclohexyl)azetidin-3-yl)-2-((3-(trifluoromethyl)-1,6-naphthyridin-5-yl)amino)acetamide], for which the concentration for half-maximal inhibition (IC50) was 430 nM. The same measure for `CC(C)C(O)[C@H]1CC[C@@H](N2CC(NC(=O)CNc3cnnc4ccc(C(F)(F)F)cc34)C2)CC1` (stereo partly drawn) [Example 157, N-(1-((1R,4s)-4-((S)-1-hydroxy-2-methylpropyl)cyclohexyl)azetidin-3-yl)-2-((6-(trifluoromethyl)cinnolin-4-yl)amino)acetamide]: 530 nM; for `O=C(CNc1ncnc2ccc(C(F)(F)F)cc12)N[C@H]1C[C@@H](N2CCC(O)(c3cncs3)CC2)C1` [Example 161, N-((1s,3s)-3-(4-hydroxy-4-(thiazol-5-yl)piperidin-1-yl)cyclobutyl)-2-((6-(trifluoromethyl)quinazolin-4-yl)amino)acetamide]: over 25000 nM; for `O=C(CNc1ncnc2ccc(C(F)(F)F)cc12)N[C@H]1C[C@H](N2CCC(O)(c3cncs3)CC2)C1` [Example 162, N-((1r,3R)-3-(4-hydroxy-4-(thiazol-5-yl)piperidin-1-yl)cyclobutyl)-2-((6-(trifluoromethyl)quinazolin-4-yl)amino)acetamide]: 1220 nM.

Take `N#Cc1cc(NCC(=O)N[C@H]2C[C@@H](N3CCC(O)(c4cncs4)CC3)C2)c2cc(C(F)(F)F)ccc2n1` [Example 163, 2-((2-cyano-6-(trifluoromethyl)quinolin-4-yl)amino)-N-((1s,3s)-3-(4-hydroxy-4-(thiazol-5-yl)piperidin-1-yl)cyclobutyl)acetamide]: the IC50 was 2600 nM. `N#Cc1cc(NCC(=O)N[C@H]2C[C@H](N3CCC(O)(c4cncs4)CC3)C2)c2cc(C(F)(F)F)ccc2n1` [Example 164, 2-((2-cyano-6-(trifluoromethyl)quinolin-4-yl)amino)-N-((1r,3r)-3-(4-hydroxy-4-(thiazol-5-yl)piperidin-1-yl)cyclobutyl)acetamide]: the IC50 is over 25000 nM. On to `CC[C@@H](O)C1CCC(N2CC(NC(=O)CNc3nccc4ccc(C(F)(F)F)cc34)C2)CC1` (stereo partly drawn) [Example 167, N-(1-((1R,4s)-4-(1-hydroxypropyl)cyclohexyl)azetidin-3-yl)-2-((7-(trifluoromethyl)isoquinolin-1-yl)amino)acetamide], for which the IC50 was found to be 44 nM. `CC[C@H](O)C1CCC(N2CC(NC(=O)CNc3nccc4ccc(C(F)(F)F)cc34)C2)CC1` (stereo partly drawn) [Example 168]: the IC50 is over 25000 nM. With `CC(C)C(O)[C@H]1CC[C@@H](N2CC(NC(=O)CNc3nccc4ccc(C(F)(F)F)cc34)C2)CC1` (stereo partly drawn) [Example 169], the IC50 was 35 nM. In the case of `CCC(O)[C@H]1CC[C@@H](N2CC(NC(=O)CNc3nccc4ccc(C(F)(F)C(F)(F)F)cc34)C2)CC1` (stereo partly drawn) [Example 170, N-(1-((1R,4s)-4-(1-hydroxypropyl)cyclohexyl)azetidin-3-yl)-2-((7-(perfluoroethyl)isoquinolin-1-yl)amino)acetamide] it was 72 nM.
